Experimental data reported in BindingDB's records for patent US20250282798 (Medshine Discovery, 2025).

Biological target: Mitogen-activated protein kinase kinase kinase kinase 1 (Homo sapiens, UniProt Q92918)
Assay: Kinase Activity Assay
Protocol: The compound was diluted 50-fold into the kinase reaction buffer, and the mixture was shaken on a shaker for 20 minutes. The kinase was prepared with the enzyme reaction buffer. 2 μL of kinase was added to each well of a reaction plate. 1 μL of the diluted compound in the buffer was added to each well. The plate was sealed with a sealing film, centrifuged at 1000 g for 30 seconds, and placed at room temperature for 10 minutes. The mixed solution of ATP/MBP was prepared with the enzyme reaction buffer. 2 μL of the mixed solution of ATP/MBP was added to the reaction plate. The plate was sealed with a sealing film, and centrifuged at 1000 g for 30 seconds. The mixture in the plate was reacted at room temperature for 60 minutes. […] The plate was incubated at 25° C. for 40 min. […] The plate was incubated at 25° C. for 40 min. The RLU (relative luminescence unit) signal was read with a BMG microplate reader, and the signal intensity was used to characterize the activity of the kinase.

Sequence of Mitogen-activated protein kinase kinase kinase kinase 1 (Q92918 whole entry): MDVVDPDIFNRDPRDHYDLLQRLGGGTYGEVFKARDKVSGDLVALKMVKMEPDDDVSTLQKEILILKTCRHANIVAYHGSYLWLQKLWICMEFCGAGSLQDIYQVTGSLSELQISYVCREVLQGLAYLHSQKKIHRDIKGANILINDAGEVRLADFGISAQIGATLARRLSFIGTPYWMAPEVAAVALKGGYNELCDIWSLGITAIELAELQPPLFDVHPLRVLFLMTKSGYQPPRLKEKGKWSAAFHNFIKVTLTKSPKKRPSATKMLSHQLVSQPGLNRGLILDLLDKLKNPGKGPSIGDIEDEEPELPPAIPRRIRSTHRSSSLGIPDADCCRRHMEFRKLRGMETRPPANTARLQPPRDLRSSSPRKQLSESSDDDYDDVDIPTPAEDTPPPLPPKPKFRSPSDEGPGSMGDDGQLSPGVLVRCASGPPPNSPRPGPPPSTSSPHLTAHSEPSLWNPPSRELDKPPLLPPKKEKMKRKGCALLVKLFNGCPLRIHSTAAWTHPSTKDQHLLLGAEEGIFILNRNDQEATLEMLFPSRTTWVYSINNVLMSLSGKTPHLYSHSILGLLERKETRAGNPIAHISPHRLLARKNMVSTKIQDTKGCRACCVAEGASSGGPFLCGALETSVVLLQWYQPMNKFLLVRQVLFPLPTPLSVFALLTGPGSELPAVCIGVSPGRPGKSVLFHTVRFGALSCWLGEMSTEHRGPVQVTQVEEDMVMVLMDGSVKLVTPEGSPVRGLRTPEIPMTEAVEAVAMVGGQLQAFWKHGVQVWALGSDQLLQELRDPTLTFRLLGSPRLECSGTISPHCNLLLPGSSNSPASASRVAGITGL

| IC50 [nM] | SMILES |
| --- | --- |
| 0.02 | Cn1ccc2c(-c3ccc(Nc4ccc5c(n4)CNC(=O)C4COCC54)c4c3CNC4=O)ccnc21 (configuration not stated) [US20250282798, Compound 23] |
| 0.3 | Cn1ccc2c(-c3ncc(Nc4ccc5c(n4)OC[C@H]4COCCN54)c4c3CNC4=O)ccnc21 [US20250282798, Compound 20] |
| 0.2 | O=C1NCc2c(-c3cnc4cc(F)ccn34)ccc(Nc3ccc4c(n3)CNC(=O)C3COCC43)c21 (configuration not stated) [US20250282798, Compound 18] |
| 1.7 | COc1cccc(F)c1-c1ccc(Nc2ccc(N3CCOCC3)c(CN(C)C)n2)c2c1CNC2=O [US20250282798, Compound 15] |
| 1.3 | CN1Cc2nc(Nc3ccc(-c4cnc5cc(F)ccn45)c4c3C(=O)NC4)ccc2C2COCC2C1 (configuration not stated) [US20250282798, Compound 17] |
| 0.2 | CN1Cc2nc(Nc3ccc(-c4ccnc5c4ccn5C)c4c3C(=O)NC4)ccc2N2CCOCC2C1 (configuration not stated) [US20250282798, Compound 25] |
| 0.8 | CN1Cc2nc(Nc3ccc(-c4cnc5cc(F)ccn45)c4c3C(=O)NC4)ccc2N2CCOCC2C1 (configuration not stated) [US20250282798, Compound 16] |
